{
  "source": "patent US20220235049A1",
  "about": "“SUBSTITUTED PYRROLO [2, 3-b] PYRIDINE AND PYRAZOLO [3,4-b] PYRIDINE DERIVATIVES AS PROTEIN KINASE INHIBITORS” (Fochon Pharmaceuticals, Ltd., priority 2019, published 2022)",
  "data": [
    {"test_system": "DOHH2 cells", "assay": "Cell proliferation assay in DOHH2 cells (MTS)", "type": "cell-based", "settings": "120 h", "protocol": "(§1) To investigate whether a compound is able to inhibit the activity of BTK in cells, a mechanism-based assay using DOHH2 (DSMZ catalog #: ACC47) cell was developed. In this assay, inhibition of BTK was detected by the inhibition of DOHH2 cells proliferation. Cells were collected and plated onto 96-well plates at the optimized cell density (5000 cells/well). Plates were incubated at 37° C., with 5% CO2 for 4 h. Compounds were serially diluted and added to the plates with the final concentrations as 10000, 3333.3, 1111.1, 370.4, 123.5, 41.2, 13.7, 4.6 and 1.5 nM. Plates were incubated at 37° C., with 5% CO2 for 120 h. An aliquot of 20 μL MTS/100 μL medium mixture solution were added to each well and the plates were incubated for exactly 2 h. The reaction was stopped by adding 25 μL 10% SDS to each well. The absorbance was measured by a microplate reader at 490 nm and 650 nm (reference wavelength). IC50 was calculated using GraphPad Prism 5.0.\n(§2) Select compounds prepared as described above were assayed according to the biological procedures described herein.", "units": {"IC50": "µM"}, "values": [
      {"smiles": "COc1cnc2[nH]cc(C(=O)c3ccc(Oc4ccccc4F)cc3C)c2c1N[C@@]12CO[C@H](CO)C1C2", "note": "(single isomer, unassigned) [Example 167]", "IC50": 0.018},
      {"smiles": "CCOc1cnc2[nH]cc(C(=O)c3ccc(Oc4ccccc4F)cc3C)c2c1N[C@@]12CO[C@H](CO)C1C2", "note": "(single isomer, unassigned) [Example 171]", "IC50": 0.002},
      {"smiles": "CCOc1cnc2[nH]cc(C(=O)c3ccc(Oc4ccccc4)cc3F)c2c1N[C@@]12CO[C@H](CO)C1C2", "note": "(single isomer, unassigned) [Example 182]", "IC50": 0.031},
      {"smiles": "CCOc1cnc2[nH]cc(C(=O)c3ccc(Oc4ccccc4F)cc3F)c2c1N[C@@]12CO[C@H](CO)C1C2", "note": "(single isomer, unassigned) [Example 172]", "IC50": 0.001},
      {"smiles": "Cc1cc(Oc2ccccc2)ccc1C(=O)c1c[nH]c2ncc(C#N)c(N[C@@]34COC(CO)[C@@H]3C4)c12", "note": "(single isomer, unassigned) [Example 20]", "IC50": 0.02}
    ]},
    {"test_system": "DOHH2 cells", "assay": "Cell proliferation assay in DOHH2 cells (MTS)", "type": "cell-based", "settings": "Homo sapiens, DOHH-2, 120 h", "protocol": "as §1, §2", "units": {"IC50": "µM"}, "values": [
      {"smiles": "COc1cnc2[nH]cc(C(=O)c3cnc(Oc4ccccc4F)cc3C)c2c1N[C@@H]1CC[C@@H](CO)OC1", "note": "[Example 76, (6-(2-fluorophenoxy)-4-methylpyridin-3-yl)(4-(((3R,6S)-6-(hydroxymethyl)tetrahydro-2H-pyran-3-yl)amino)-5-methoxy-1H-pyrrolo[2,3-b]pyridin-3-yl)methanone]", "IC50": 0.047},
      {"smiles": "O=C(c1ccc(Oc2ccccc2)cc1Cl)c1c[nH]c2ncc(F)c(N[C@@H]3CC[C@@H](CO)OC3)c12", "note": "[Example 6, (2-chloro-4-phenoxyphenyl)(5-fluoro-4-(((3R,6S)-6-(hydroxymethyl)tetrahydro-2H-pyran-3-yl)amino)-1H-pyrrolo[2,3-b]pyridin-3-yl)methanone]", "IC50": 0.089},
      {"smiles": "N#Cc1cnc2[nH]cc(C(=O)c3ccc(Oc4ccccc4)cc3)c2c1N[C@@H]1CC[C@@H](CO)OC1", "note": "[Example 29, 4-(((3R,6S)-6-(hydroxymethyl)tetrahydro-2H-pyran-3-yl)amino)-3-(4-phenoxybenzoyl)-1H-pyrrolo[2,3-b]pyridine-5-carbonitrile]", "IC50": 0.099},
      {"smiles": "COc1cnc2[nH]cc(C(=O)c3c(F)cc(Oc4ccccc4F)cc3F)c2c1N[C@@H]1CC[C@@H](CO)OC1", "note": "[Example 194, (2,6-difluoro-4-(2-fluorophenoxy)phenyl)(4-(((3R,6S)-6-(hydroxymethyl)tetrahydro-2H-pyran-3-yl)amino)-5-methoxy-1H-pyrrolo[2,3-b]pyridin-3-yl)methanone]", "IC50": 0.026},
      {"smiles": "O=C(c1ccc(Oc2ccccc2)c(Cl)c1Cl)c1c[nH]c2nccc(N[C@@H]3CC[C@@H](CO)OC3)c12", "note": "[Example 36, (2,3-dichloro-4-phenoxyphenyl)(4-(((3R,6S)-6-(hydroxymethyl)tetrahydro-2H-pyran-3-yl)amino)-1H-pyrrolo[2,3-b]pyridin-3-yl)methanone]", "IC50": 0.069},
      {"smiles": "COc1cnc2[nH]cc(C(=O)c3ccc(Oc4ccccc4F)cc3C)c2c1N[C@@H]1CC[C@@H](CO)OC1", "note": "[Example 78, (4-(2-fluorophenoxy)-2-methylphenyl)(4-(((3R,6S)-6-(hydroxymethyl)tetrahydro-2H-pyran-3-yl)amino)-5-methoxy-1H-pyrrolo[2,3-b]pyridin-3-yl)methanone]", "IC50": 0.001},
      {"smiles": "COc1cnc2[nH]cc(C(=O)c3ccc(Oc4c(F)cccc4F)cc3)c2c1N[C@@H]1CC[C@@H](CO)OC1", "note": "[Example 184, (4-(2,6-difluorophenoxy)phenyl)(4-(((3R,6S)-6-(hydroxymethyl)tetrahydro-2H-pyran-3-yl)amino)-5-methoxy-1H-pyrrolo[2,3-b]pyridin-3-yl)methanone]", "IC50": 0.001},
      {"smiles": "N#Cc1cnc2[nH]cc(C(=O)c3ccc(Oc4ccccc4)cc3Cl)c2c1N[C@@H]1CC[C@@H](CO)OC1", "note": "[Example 7, 3-(2-chloro-4-phenoxybenzoyl)-4-(((3R,6S)-6-(hydroxymethyl)tetrahydro-2H-pyran-3-yl)amino)-1H-pyrrolo[2,3-b]pyridine-5-carbonitrile]", "IC50": 0.083},
      {"smiles": "COc1cc(Oc2ccccc2F)ccc1C(=O)c1c[nH]c2ncc(OC)c(N[C@@H]3CC[C@@H](CO)OC3)c12", "note": "[Example 81, (4-(2-fluorophenoxy)-2-methoxyphenyl)(4-(((3R,6S)-6-(hydroxymethyl)tetrahydro-2H-pyran-3-yl)amino)-5-methoxy-1H-pyrrolo[2,3-b]pyridin-3-yl)methanone]", "IC50": 0.019},
      {"smiles": "COc1cnc2[nH]cc(C(=O)c3ccc(Oc4ccccc4F)cc3C)c2c1N[C@@]12CO[C@H](CO)C1C2", "note": "(single isomer, unassigned) [Example 166]", "IC50": 0.021},
      {"smiles": "COc1cnc2[nH]cc(C(=O)c3ccc(Oc4ccccn4)cc3F)c2c1N[C@@H]1CC[C@@H](CO)OC1", "note": "[Example 196, (2-fluoro-4-(pyridin-2-yloxy)phenyl)(4-(((3R,6S)-6-(hydroxymethyl)tetrahydro-2H-pyran-3-yl)amino)-5-methoxy-1H-pyrrolo[2,3-b]pyridin-3-yl)methanone]", "IC50": 0.044},
      {"smiles": "Cc1cc(Oc2ccccc2)ccc1C(=O)c1c[nH]c2nccc(N[C@@H]3CC[C@@H](CO)OC3)c12", "note": "[Example 13, (4-(((3R,6S)-6-(hydroxymethyl)tetrahydro-2H-pyran-3-yl)amino)-1H-pyrrolo[2,3-b]pyridin-3-yl)(2-methyl-4-phenoxyphenyl)methanone]", "IC50": 0.019},
      {"smiles": "O=C(c1ccc(Oc2ccccc2)cc1)c1c[nH]c2nccc(N[C@@H]3CC[C@@H](CO)OC3)c12", "note": "[Example 28, (4-(((3R,6S)-6-(hydroxymethyl)tetrahydro-2H-pyran-3-yl)amino)-1H-pyrrolo[2,3-b]pyridin-3-yl)(4-phenoxyphenyl)methanone]", "IC50": 0.032},
      {"smiles": "Cc1cc(Oc2cccc(F)c2)ccc1C(=O)c1c[nH]c2nccc(N[C@@H]3CC[C@@H](CO)OC3)c12", "note": "[Example 47, (4-(3-fluorophenoxy)-2-methylphenyl)(4-(((3R,6S)-6-(hydroxymethyl)tetrahydro-2H-pyran-3-yl)amino)-1H-pyrrolo[2,3-b]pyridin-3-yl)methanone]", "IC50": 0.046},
      {"smiles": "N#Cc1cnc2[nH]cc(C(=O)c3ccc(Oc4ccccc4F)cc3F)c2c1N[C@@H]1CC[C@@H](CO)OC1", "note": "[Example 90, 3-(2-fluoro-4-(2-fluorophenoxy)benzoyl)-4-(((3R,6S)-6-(hydroxymethyl)tetrahydro-2H-pyran-3-yl)amino)-1H-pyrrolo[2,3-b]pyridine-5-carbonitrile]", "IC50": 0.05},
      {"smiles": "Cc1cc(Oc2ccccc2)ccc1C(=O)c1c[nH]c2ncc(C#N)c(N[C@@H]3CC[C@@H](CO)OC3)c12", "note": "[Example 11, 4-(((3R,6S)-6-(hydroxymethyl)tetrahydro-2H-pyran-3-yl)amino)-3-(2-methyl-4-phenoxybenzoyl)-1H-pyrrolo[2,3-b]pyridine-5-carbonitrile]", "IC50": 0.06},
      {"smiles": "O=C(c1ccc(Oc2ccccc2F)cc1)c1c[nH]c2ncc(F)c(N[C@@H]3CC[C@@H](CO)OC3)c12", "note": "[Example 114, (5-fluoro-4-(((3R,6S)-6-(hydroxymethyl)tetrahydro-2H-pyran-3-yl)amino)-1H-pyrrolo[2,3-b]pyridin-3-yl)(4-(2-fluorophenoxy)phenyl)methanone]", "IC50": 0.012},
      {"smiles": "Cc1cc(Oc2ccccc2F)ccc1C(=O)c1c[nH]c2ncc(C#N)c(N[C@@H]3CC[C@@H](CO)OC3)c12", "note": "[Example 48, 3-(4-(2-fluorophenoxy)-2-methylbenzoyl)-4-(((3R,6S)-6-(hydroxymethyl)tetrahydro-2H-pyran-3-yl)amino)-1H-pyrrolo[2,3-b]pyridine-5-carbonitrile]", "IC50": 0.001}
    ]}
  ]
}
